Measured values taken from patent US20210038564A1, “METHODS FOR SCAR PREVENTION” (Northwestern University, priority 2009, published 2021).

Test system: hypertrophic scar formation
Test: Hypertrophic scar model in rabbit ear, 7-mm wounds, scar elevation index
Type: in vivo, rabbit (New Zealand White)
Description: Using a well-established hypertrophic scar model in rabbit ear (Brown et al. (2008) Plast. Reconstr. Surg. 121:1165-1172; Kim et al. (2003) Wound Repair Regen. 11:368-372; Kryger et al. (2007) J Am. Coll. Surg. 205:78-88; Lu et al. (2005) J Am. Coll. Surg. 201:391-397; Morris et al. (2007) Plast. Reconstr. Surg. 100:674-681; Reid et al. (2006) Wound Repair Regen. 14:138-141; Reid et al. (2007) J Plast. Reconstr. Aesthet. Surg. 60:64-72; Saulis et al. (2002) Plast. Reconstr. Surg. 110:177-183; each herein incorporated by reference in its entirety), the effects of local administration of statins (e.g., Simvastatin, Lovastatin, Prevastatin) were investigated in experiments conducted during the course of developing some embodiments of the present technology. […] The effectiveness of statin administration on inhibition of hypertrophic scar formation was assessed by histological determination of scar elevation index (FIG. 1). The scar elevation index is determined by the ratio of total wound area tissue height to the area of normal tissue below the hypertrophic scar. […]
Whereas the dosages in terms of μMol were equivalent for all 3 statins, the μg dosage levels for Lovastatin and Prevastatin were double those used for Simvastatin. Scar Elevation Index was determined for 28 rabbits, as indicated: […]

`CC[C@H](C)C(=O)O[C@H]1C[C@@H](C)C=C2C=C[C@H](C)[C@H](CC[C@@H]3C[C@@H](O)CC(=O)O3)[C@H]21` [Lovastatin] was tested. Which hypertrophic scar formation (40 μM per wound, local injection) did it give?
Its hypertrophic scar formation is “inhibit hypertrophic scar formation”.

What about the “scar elevation index (SEI)” value (lowest level of drug administered (40 μM per wound), injections on days 15, 20, 25, harvest on day 35, versus vehicle) of the same compound?
Its value is “significantly lower SEI”.
